Tests used:
Assay type in all cases: in vivo
[1] = system: deadnettle (henbit deadnettle, Lamium amplexicaule); experiment: Test D pre-/postemergence: deadnettle
Description: (§1) Seeds of plant species selected from bluegrass (annual bluegrass, Poa annua), blackgrass (Alopecurus myosuroides), canarygrass (Phalaris minor), chickweed (common chickweed, Stellaria media), galium (catchweed bedstraw, Galium aparine), bromegrass, downy (downy bromegrass, Bromus tectorum), field poppy (Papaver rhoeas), field violet (Viola arvensis), foxtail, green (green foxtail, Setaria viridis), deadnettle (henbit deadnettle, Lamium amplexicaule), ryegrass, Italian (Italian ryegrass, Lolium multiflorum), kochia (Kochia scoparia), lambsquarters (Chenopodium album), oilseed rape (Brassica napus), pigweed (Amaranthus retroflexus), Russian thistle (Salsola iberica), chamomile (scentless chamomile, Matricaria inodora), speedwell (bird's-eye speedwell, Veronica persica), barley, spring (spring barley, Hordeum vulgare), wheat, spring (spring wheat, Triticum aestivum), buckwheat, wild (wild buckwheat, Polygonum convolvulus), mustard, wild (wild mustard, Sinapis arvensis), oat, wild (wild oat, Avena fatua), radish, wild (wild radish, Raphanus raphanistrum), windgrass (Apera spica-venti), barley, winter (winter barley, Hordeum vulgare), and wheat, winter (winter wheat, Triticum aestivum) were planted into a silt loam soil and treated preemergence with test chemicals formulated in a non-phytotoxic solvent mixture which included a surfactant. At the same time, these same crop and weed species were planted in pots containing the planting medium comprising spaghnum peat moss, vermiculite, wetting agent and starter nutrients and treated with postemergence applications of the test chemicals formulated in the same manner. Plants ranged in height from 2 to 18 cm (1- to 4-leaf stage).
(§2) Treated plants and controls were maintained in a controlled growth environment for 14 to 21 days after which time all species were compared to controls and visually evaluated. Plant response ratings, summarized in Table D, are based on a scale of 0 to 100 where 0 is no effect and 100 is complete control. A dash (-) response means no test result.

[2] = system: ryegrass, Italian (Italian ryegrass, Lolium multiflorum); experiment: Test D pre-/postemergence: ryegrass, Italian
Description: as §1, §2

[3] = system: chickweed (common chickweed, Stellaria media); experiment: Test D pre-/postemergence: chickweed; conditions: Postemergence
Description: as §1, §2

[4] = system: bermudagrass (Cynodon dactylon); experiment: Test C pre-/postemergence: bermudagrass
Description: Seeds of plant species selected from blackgrass (Alopecurus myosuroides), bromegrass, downy (downy bromegrass, Bromus tectorum), foxtail, green (green foxtail, Setaria viridis), ryegrass, Italian (Italian ryegrass, Lolium multiflorum), winter wheat (Triticum aestivum), wild oat (Avena fatua), galium (catchweed bedstraw, Galium aparine), bermudagrass (Cynodon dactylon), surinam grass (Brachiaria decumbens), cocklebur (common cocklebur, Xanthium strumarium), corn (Zea mays), large crabgrass (Digitaria sanguinalis), woolly cupgrass (Eriochloa villosa), foxtail, giant (giant foxtail, Setaria faberii), goosegrass (Eleusine indica), johnsongrass (Sorghum halepense), kochia (Kochia scoparia), lambsquarters (Chenopodium album), morningglory (Ipomoea coccinea), nightshade (eastern black nightshade, Solanum ptycanthum), nutsedge, yellow (yellow nutsedge, Cyperus esculentus), pigweed (Amaranthus retroflexus), ragweed (common ragweed, Ambrosia elation), soybean (Glycine max), common (oilseed) sunflower (Helianthus annuus), Russian thistle (Salsola kali) and velvetleaf (Abutilon theophrasti) were planted into a blend of loam soil and sand and treated preemergence with test chemicals formulated in a non-phytotoxic solvent mixture which included a surfactant.
At the same time, plants selected from these crop and weed species and also barley (winter barley, Hordeum vulgare), canarygrass (Phalaris minor), chickweed (common chickweed, Stellaria media) windgrass (Apera spica-venti) and deadnettle (henbit deadnettle, Lamium amplexicaule) were planted in pots containing Redi-Earth® planting medium (Scotts Company, 14111 Scottslawn Road, Marysville, Ohio 43041) comprising spaghnum peat moss, vermiculite, wetting agent and starter nutrients and treated with postemergence applications of test chemicals formulated in the same manner. Plants ranged in height from 2 to 18 cm (1- to 4-leaf stage) for postemergence treatments.
Treated plants and controls were maintained in a greenhouse for 13 to 15 days, after which time all species were compared to controls and visually evaluated. Plant response ratings, summarized in Table C, are based on a scale of 0 to 100 where 0 is no effect and 100 is complete control. A dash (-) response means no test result.

[5] = system: Russian thistle (Salsola iberica); experiment: Test D pre-/postemergence: Russian thistle
Description: as §1, §2

[6] = system: blackgrass (Alopecurus myosuroides); experiment: Test D pre-/postemergence: blackgrass
Description: as §1, §2

[7] = system: bluegrass (annual bluegrass, Poa annua); experiment: Test D pre-/postemergence: bluegrass
Description: as §1, §2

[8] = Postemergence, 31 g ai/ha, scale 0 to 100 (0 no effect, 100 complete control)
[9] = Postemergence, 62 g ai/ha, scale 0 to 100 (0 no effect, 100 complete control)
[10] = Postemergence, 125 g ai/ha, scale 0 to 100, 0 no effect, 100 complete control
[11] = Postemergence, 250 g ai/ha, scale 0 to 100 (0 no effect, 100 complete control)
[12] = Postemergence, 16 g ai/ha, scale 0 to 100
[13] = Preemergence, 16 g ai/ha, scale 0 to 100 (0 no effect, 100 complete control)
[14] = Preemergence, 31 g ai/ha, scale 0 to 100 (0 no effect, 100 complete control)
[15] = Preemergence, 62 g ai/ha, scale 0 to 100
[16] = Preemergence, 125 g ai/ha, scale 0 to 100
[17] = Preemergence, 250 g ai/ha, scale 0 to 100
[18] = Postemergence, 250 g ai/ha, scale 0 to 100
[19] = Preemergence, 31 g ai/ha, scale of 0 to 100, 0 is no effect, 100 is complete control
[20] = Preemergence, 62 g ai/ha, scale 0 to 100, 0 no effect, 100 complete control
[21] = Preemergence, 125 g ai/ha, scale 0 to 100, 0 no effect, 100 complete control
[22] = Preemergence, 250 g ai/ha, scale 0 to 100, 0 no effect, 100 complete control

Q: How did the “Plant response rating: Deadnettle” value [1, 8] turn out when `Cc1nn(-c2ccc(F)cc2)nc1Cc1ccnc(C(F)(F)F)c1` [Compound 16, 4-[[2-(4-fluorophenyl)-5-methyl-2H-1,2,3-triazol-4-yl]methyl]-2-(trifluoromethyl)pyridine] was run?
A: 25

Q: And the “Plant response rating: Deadnettle” value [1, 9]?
A: 45

Q: And the “Plant response rating: Deadnettle” value [1, 10]?
A: 50

Q: And the “Plant response rating: Deadnettle” value [1, 11]?
A: 90

Q: And the “Plant response rating, Deadnettle” value [1, 12]?
A: 10

Q: What about the “Plant response rating, Deadnettle” value [1, 13] of the same molecule?
A: 0

Q: And the “Plant response rating, Deadnettle” value [1, 14]?
A: 40

Q: And the “Plant response rating, Deadnettle” value [1, 15]?
A: 60

Q: What about the “Plant response rating, Deadnettle” value [1, 16] of the same molecule?
A: 100

Q: And the “Plant response rating, Deadnettle” value [1, 17]?
A: 100

Q: And the “Plant response rating: Ryegrass, Italian” value [2, 8]?
A: 20

Q: What about the “Plant response rating: Ryegrass, Italian” value [2, 9] of the same molecule?
A: 25

Q: And the “Plant response rating: Ryegrass, Italian” value [2, 10]?
A: 30

Q: And the “Plant response rating: Ryegrass, Italian” value [2, 11]?
A: 35

Q: And the “Plant response rating, Ryegrass, Italian” value [2, 12]?
A: 10

Q: And the “Plant response rating, Ryegrass, Italian” value [2, 13]?
A: 0

Q: And the “Plant response rating, Ryegrass, Italian” value [2, 14]?
A: 0

Q: And the “Plant response rating, Ryegrass, Italian” value [2, 15]?
A: 10

Q: And the “Plant response rating, Ryegrass, Italian” value [2, 16]?
A: 60

Q: What about the “Plant response rating, Ryegrass, Italian” value [2, 17] of the same molecule?
A: 60

Q: What about the “Plant response rating: Chickweed” value ([3]; 31 g ai/ha, scale 0 to 100 (0 no effect, 100 complete control)) of the same molecule?
A: 70

Q: What about the “Plant response rating: Chickweed” value ([3]; 62 g ai/ha, scale 0 to 100 (0 no effect, 100 complete control)) of the same molecule?
A: 90

Q: And the “Plant response rating: Chickweed” value ([3]; 125 g ai/ha, scale 0 to 100, 0 no effect, 100 complete control)?
A: 95

Q: What about the “Plant response rating: Chickweed” value ([3]; 250 g ai/ha, scale 0 to 100 (0 no effect, 100 complete control)) of the same molecule?
A: 95

Q: What about the “Plant response rating, Chickweed” value ([3]; 16 g ai/ha, scale 0 to 100) of the same molecule?
A: 40

Q: And the “Plant response rating, Bermudagrass” value [4, 8]?
A: 5

Q: And the “Plant response rating, Bermudagrass” value [4, 9]?
A: 5

Q: What about the “Plant response rating, Bermudagrass” value [4, 10] of the same molecule?
A: 15

Q: What about the “Plant response rating, Bermudagrass” value [4, 18] of the same molecule?
A: 65

Q: What about the “Plant response rating, Bermudagrass” value [4, 19] of the same molecule?
A: 5

Q: What about the “Plant response rating, Bermudagrass” value [4, 20] of the same molecule?
A: 25

Q: And the “Plant response rating, Bermudagrass” value [4, 21]?
A: 75

Q: And the “Plant response rating, Bermudagrass” value [4, 22]?
A: 75

Q: And the “Plant response rating: Russian Thistle” value [5, 8]?
A: 95

Q: And the “Plant response rating: Russian Thistle” value [5, 9]?
A: 100

Q: What about the “Plant response rating: Russian Thistle” value [5, 10] of the same molecule?
A: 100

Q: And the “Plant response rating: Russian Thistle” value [5, 11]?
A: 100

Q: What about the “Plant response rating, Russian Thistle” value [5, 12] of the same molecule?
A: 90

Q: And the “Plant response rating, Russian Thistle” value [5, 13]?
A: 0

Q: What about the “Plant response rating, Russian Thistle” value [5, 14] of the same molecule?
A: 35

Q: What about the “Plant response rating, Russian Thistle” value [5, 15] of the same molecule?
A: 40

Q: What about the “Plant response rating, Russian Thistle” value [5, 17] of the same molecule?
A: 90

Q: And the “Plant response rating: Blackgrass” value [6, 8]?
A: 10

Q: And the “Plant response rating: Blackgrass” value [6, 9]?
A: 20

Q: And the “Plant response rating: Blackgrass” value [6, 10]?
A: 25

Q: And the “Plant response rating: Blackgrass” value [6, 11]?
A: 40

Q: What about the “Plant response rating, Blackgrass” value [6, 12] of the same molecule?
A: 5

Q: What about the “Plant response rating, Blackgrass” value [6, 13] of the same molecule?
A: 0

Q: What about the “Plant response rating, Blackgrass” value [6, 14] of the same molecule?
A: 0

Q: What about the “Plant response rating, Blackgrass” value [6, 15] of the same molecule?
A: 40

Q: What about the “Plant response rating, Blackgrass” value [6, 16] of the same molecule?
A: 70

Q: What about the “Plant response rating, Blackgrass” value [6, 17] of the same molecule?
A: 100

Q: What about the “Plant response rating: Bluegrass” value [7, 8] of the same molecule?
A: 20

Q: What about the “Plant response rating: Bluegrass” value [7, 9] of the same molecule?
A: 40

Q: And the “Plant response rating: Bluegrass” value [7, 10]?
A: 60

Q: What about the “Plant response rating: Bluegrass” value [7, 11] of the same molecule?
A: 70

Q: What about the “Plant response rating, Bluegrass” value [7, 12] of the same molecule?
A: 10

Q: What about the “Plant response rating, Bluegrass” value [7, 13] of the same molecule?
A: 0

Q: What about the “Plant response rating, Bluegrass” value [7, 14] of the same molecule?
A: 20

Q: What about the “Plant response rating, Bluegrass” value [7, 15] of the same molecule?
A: 20

Q: What about the “Plant response rating, Bluegrass” value [7, 16] of the same molecule?
A: 30

Q: What about the “Plant response rating, Bluegrass” value [7, 17] of the same molecule?
A: 100

Q: How did the “Plant response rating, Bermudagrass” value [4, 8] turn out when `Cc1nn(-c2ccc(C(F)(F)F)cc2)nc1Cc1ccnc(C(F)(F)F)c1` [Compound 47, 4-[[5-methyl-2-[4-(trifluoromethyl)phenyl]-2H-1,2,3-triazol-4-yl]methyl]-2-(trifluoromethyl)pyridine] was run?
A: 10

Q: What about the “Plant response rating, Bermudagrass” value [4, 9] of the same molecule?
A: 20

Q: What about the “Plant response rating, Bermudagrass” value [4, 10] of the same molecule?
A: 55

Q: What about the “Plant response rating, Bermudagrass” value [4, 18] of the same molecule?
A: 75

Q: What about the “Plant response rating, Bermudagrass” value [4, 19] of the same molecule?
A: 100

Q: What about the “Plant response rating, Bermudagrass” value [4, 20] of the same molecule?
A: 100

Q: What about the “Plant response rating, Bermudagrass” value [4, 21] of the same molecule?
A: 100

Q: What about the “Plant response rating, Bermudagrass” value [4, 22] of the same molecule?
A: 100

Q: With `Cc1nn(-c2ccc(C(F)(F)F)cc2)nc1Cc1cccc(C(F)(F)F)c1` [Compound 124] as the molecule, how does the “Plant response rating, Bermudagrass” value ([4]; Postemergence, 16 g ai/ha, scale 0 to 100, 0 no effect, 100 complete control) read?
A: 5

Q: And the “Plant response rating, Bermudagrass” value [4, 8]?
A: 25

Q: And the “Plant response rating, Bermudagrass” value [4, 9]?
A: 45

Q: And the “Plant response rating, Bermudagrass” value [4, 10]?
A: 60
